This passage reports IC50 and efflux ratio results from patent publication US12447153B2, “HER2 mutation inhibitors” (Array BioPharma Inc., priority 2021, dated 2025).

One data set deals with ErbB2 WT (Homo sapiens (Human), UniProt P04626). The data set can be described thus: ErbB Enzyme Assay (HTRF KinEASE-TK), Assay 2. It counts as biochemical. The note with it: ErbB2 WT enzyme.
The next data set deals with EGFR (Homo sapiens (Human), UniProt P00533). Nature of the data set: ErbB Enzyme Assay (HTRF KinEASE-TK), Assay 3. The conditions noted are these: EGFR enzyme. It counts as biochemical. For orientation: In TR-FRET formats the signal depends on donor and acceptor labels being close together.
EGFR, sequence (P00533 25-1210): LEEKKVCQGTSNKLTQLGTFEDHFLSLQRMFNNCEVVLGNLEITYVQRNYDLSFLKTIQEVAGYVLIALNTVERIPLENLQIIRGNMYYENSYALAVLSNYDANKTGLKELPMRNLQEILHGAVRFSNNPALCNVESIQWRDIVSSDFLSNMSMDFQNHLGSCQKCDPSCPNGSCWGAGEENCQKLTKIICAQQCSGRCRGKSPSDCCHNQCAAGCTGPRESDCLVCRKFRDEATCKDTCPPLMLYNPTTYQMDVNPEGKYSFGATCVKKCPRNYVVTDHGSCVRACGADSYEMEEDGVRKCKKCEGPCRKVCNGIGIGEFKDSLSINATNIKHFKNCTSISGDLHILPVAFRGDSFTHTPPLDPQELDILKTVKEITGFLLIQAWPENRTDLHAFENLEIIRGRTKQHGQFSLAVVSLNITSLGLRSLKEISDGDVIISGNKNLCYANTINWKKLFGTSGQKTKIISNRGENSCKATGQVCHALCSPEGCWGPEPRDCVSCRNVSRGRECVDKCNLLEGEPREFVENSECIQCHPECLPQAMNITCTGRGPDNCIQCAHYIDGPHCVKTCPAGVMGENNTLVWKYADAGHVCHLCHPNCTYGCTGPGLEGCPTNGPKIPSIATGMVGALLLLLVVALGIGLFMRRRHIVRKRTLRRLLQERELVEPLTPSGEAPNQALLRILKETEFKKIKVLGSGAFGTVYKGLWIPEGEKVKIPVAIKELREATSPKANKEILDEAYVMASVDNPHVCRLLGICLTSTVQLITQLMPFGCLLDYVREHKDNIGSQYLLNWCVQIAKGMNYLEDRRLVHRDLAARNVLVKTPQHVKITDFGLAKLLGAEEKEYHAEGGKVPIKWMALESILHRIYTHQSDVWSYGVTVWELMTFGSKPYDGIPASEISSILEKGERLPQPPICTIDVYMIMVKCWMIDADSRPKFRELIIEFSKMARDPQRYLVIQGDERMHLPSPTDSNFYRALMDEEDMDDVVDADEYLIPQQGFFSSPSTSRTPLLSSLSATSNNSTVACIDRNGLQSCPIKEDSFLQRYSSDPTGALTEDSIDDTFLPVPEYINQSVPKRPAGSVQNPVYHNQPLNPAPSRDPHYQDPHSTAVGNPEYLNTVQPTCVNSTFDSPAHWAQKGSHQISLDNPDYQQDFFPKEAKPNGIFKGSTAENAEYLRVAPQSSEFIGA
Another data set addresses EGFR wild type (EGFR WT) (Homo sapiens (Human), UniProt P00533). The data set can be described thus: Cellular Phosphorylation Assay, Assay 5 (EGF-stimulated EGFR phosphorylation, NIH 3T3 cells). The note with it: EGF-stimulated EGFR WT phosphorylation. The format is cell-based.
In a further data set the target is BCRP (Homo sapiens (Human), UniProt Q9UNQ0). The data set can be described thus: BCRP MDCKII efflux assay (Assay 7). The format is in vitro ADME. The note with it: dog; efflux ratio Papp(B-A)/Papp(A-B), BCRP MDCKII cells; read-out: Assay 7 Pe Ratio. On the procedure:
Assay conditions included with and without the BCRP-specific inhibitor, KO143, at a concentration of 0.3 μM to ascertain the contribution of BCRP to the efflux value of the test compound.
Final organic concentration in the assay was 1%.

Data set [1] concerns the target ErbB2 with Exon 20 YVMA insertion (HER2-YVMA) (Homo sapiens (Human), UniProt P04626, INS775YVMA). The data set can be described thus: Cellular Phosphorylation Assay, Assay 4 (constitutive ErbB2 phosphorylation, NIH 3T3 cells). The format is cell-based. The conditions noted are these: ErbB2 YVMA phosphorylation.

Where only a bound is given, the exact number is not on record here.

ErbB2 WT, sequence (P04626 23-1255): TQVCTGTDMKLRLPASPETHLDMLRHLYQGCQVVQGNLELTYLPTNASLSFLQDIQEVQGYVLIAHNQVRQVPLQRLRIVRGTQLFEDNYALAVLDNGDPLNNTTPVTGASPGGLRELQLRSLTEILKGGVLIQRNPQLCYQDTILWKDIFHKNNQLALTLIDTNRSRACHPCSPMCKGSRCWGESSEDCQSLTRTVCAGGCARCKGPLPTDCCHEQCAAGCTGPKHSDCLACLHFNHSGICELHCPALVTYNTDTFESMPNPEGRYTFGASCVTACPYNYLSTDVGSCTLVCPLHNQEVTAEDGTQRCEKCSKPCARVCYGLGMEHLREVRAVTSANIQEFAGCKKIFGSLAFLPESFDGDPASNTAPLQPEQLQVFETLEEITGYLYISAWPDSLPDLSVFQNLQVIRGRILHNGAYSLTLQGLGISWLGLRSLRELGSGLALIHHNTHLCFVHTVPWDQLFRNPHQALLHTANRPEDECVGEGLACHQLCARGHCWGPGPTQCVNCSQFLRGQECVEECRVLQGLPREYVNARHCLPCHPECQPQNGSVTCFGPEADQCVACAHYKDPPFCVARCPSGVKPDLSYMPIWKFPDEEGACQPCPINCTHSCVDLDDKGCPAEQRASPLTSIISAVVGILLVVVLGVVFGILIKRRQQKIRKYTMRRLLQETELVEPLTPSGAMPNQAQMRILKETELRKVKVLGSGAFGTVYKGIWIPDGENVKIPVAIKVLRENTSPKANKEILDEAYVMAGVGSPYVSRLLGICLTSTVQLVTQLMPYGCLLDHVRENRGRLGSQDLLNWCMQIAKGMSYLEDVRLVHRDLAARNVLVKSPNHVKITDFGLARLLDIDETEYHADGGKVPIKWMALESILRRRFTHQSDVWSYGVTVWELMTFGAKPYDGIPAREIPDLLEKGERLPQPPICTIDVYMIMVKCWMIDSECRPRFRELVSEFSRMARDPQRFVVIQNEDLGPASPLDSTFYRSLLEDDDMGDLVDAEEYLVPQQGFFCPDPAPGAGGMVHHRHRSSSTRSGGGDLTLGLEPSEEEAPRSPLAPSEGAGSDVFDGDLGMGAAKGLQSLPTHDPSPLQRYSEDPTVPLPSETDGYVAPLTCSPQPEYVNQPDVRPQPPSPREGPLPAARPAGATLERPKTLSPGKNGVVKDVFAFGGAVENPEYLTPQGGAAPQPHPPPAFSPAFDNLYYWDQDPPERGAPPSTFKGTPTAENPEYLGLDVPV
BCRP, sequence (Q9UNQ0 whole entry): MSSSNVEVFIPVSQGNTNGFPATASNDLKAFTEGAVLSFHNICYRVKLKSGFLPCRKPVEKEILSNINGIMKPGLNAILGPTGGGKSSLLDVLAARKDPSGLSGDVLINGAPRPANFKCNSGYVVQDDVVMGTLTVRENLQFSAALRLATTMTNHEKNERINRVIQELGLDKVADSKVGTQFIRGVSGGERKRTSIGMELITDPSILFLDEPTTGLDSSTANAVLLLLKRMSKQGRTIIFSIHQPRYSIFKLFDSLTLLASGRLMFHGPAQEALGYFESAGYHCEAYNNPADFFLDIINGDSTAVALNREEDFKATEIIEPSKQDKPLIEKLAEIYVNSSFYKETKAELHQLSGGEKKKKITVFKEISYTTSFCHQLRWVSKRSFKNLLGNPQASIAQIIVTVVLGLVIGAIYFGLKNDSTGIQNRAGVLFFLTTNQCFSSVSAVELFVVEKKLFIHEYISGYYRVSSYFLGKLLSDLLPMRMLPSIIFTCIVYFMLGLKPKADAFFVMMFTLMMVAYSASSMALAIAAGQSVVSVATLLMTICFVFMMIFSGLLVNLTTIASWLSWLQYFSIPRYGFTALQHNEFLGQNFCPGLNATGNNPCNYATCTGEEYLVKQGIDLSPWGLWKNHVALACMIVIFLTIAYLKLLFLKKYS
ErbB2 with Exon 20 YVMA insertion (HER2-YVMA), sequence (P04626 other isoform, or with tags, fused parts or gaps ins YVMA behind 775): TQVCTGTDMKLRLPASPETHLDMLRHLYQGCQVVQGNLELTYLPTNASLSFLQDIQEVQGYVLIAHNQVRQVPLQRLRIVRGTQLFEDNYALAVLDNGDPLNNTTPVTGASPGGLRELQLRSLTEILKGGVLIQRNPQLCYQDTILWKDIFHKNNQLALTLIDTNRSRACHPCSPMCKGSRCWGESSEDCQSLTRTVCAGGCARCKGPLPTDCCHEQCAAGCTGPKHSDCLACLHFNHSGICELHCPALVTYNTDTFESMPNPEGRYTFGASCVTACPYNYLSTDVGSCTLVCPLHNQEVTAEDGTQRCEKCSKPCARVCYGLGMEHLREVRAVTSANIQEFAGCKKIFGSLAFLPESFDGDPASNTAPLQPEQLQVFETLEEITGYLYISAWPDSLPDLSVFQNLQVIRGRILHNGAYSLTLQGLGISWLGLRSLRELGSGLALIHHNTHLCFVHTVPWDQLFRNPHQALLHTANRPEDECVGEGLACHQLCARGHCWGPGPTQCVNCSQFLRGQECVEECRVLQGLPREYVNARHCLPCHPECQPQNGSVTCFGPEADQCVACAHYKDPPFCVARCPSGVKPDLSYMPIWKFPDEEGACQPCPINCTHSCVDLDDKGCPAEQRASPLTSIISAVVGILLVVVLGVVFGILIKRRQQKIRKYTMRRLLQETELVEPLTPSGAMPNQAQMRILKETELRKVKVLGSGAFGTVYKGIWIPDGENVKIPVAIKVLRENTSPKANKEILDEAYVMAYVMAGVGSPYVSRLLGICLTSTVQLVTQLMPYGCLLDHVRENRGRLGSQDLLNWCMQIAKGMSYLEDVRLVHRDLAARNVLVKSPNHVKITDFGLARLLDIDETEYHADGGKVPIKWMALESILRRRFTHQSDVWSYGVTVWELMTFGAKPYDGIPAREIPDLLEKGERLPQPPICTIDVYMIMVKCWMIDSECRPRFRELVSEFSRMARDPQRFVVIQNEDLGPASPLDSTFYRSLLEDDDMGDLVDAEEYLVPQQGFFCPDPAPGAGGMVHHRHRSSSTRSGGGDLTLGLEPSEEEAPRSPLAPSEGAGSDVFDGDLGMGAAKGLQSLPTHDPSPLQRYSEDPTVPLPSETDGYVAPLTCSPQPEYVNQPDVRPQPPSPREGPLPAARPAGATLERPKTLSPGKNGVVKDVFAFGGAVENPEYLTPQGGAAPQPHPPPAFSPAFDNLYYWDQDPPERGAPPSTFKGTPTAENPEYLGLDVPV

In the case of `C=CC(=O)N1CCN(c2ccc3ncnc(Nc4ccc(Oc5ccc6c(c5)ncn6C)c(C)c4)c3n2)CC1` [Example 105, 1-(4-(4-((3-methyl-4-((1-methyl-1H-benzo[d]imidazol-5-yl)oxy)phenyl)amino)pyrido[3,2-d]pyrimidin-6-yl)piperazin-1-yl)prop-2-en-1-one], the half-inhibitory concentration (IC50) (usually the concentration needed to halve the response being measured) against ErbB2 WT turned out to be 11.9 nM; at EGFR it was 680 nM; at EGFR wild type (EGFR WT), 1350 nM; in data set [1], 5 nM. Moreover, at BCRP, the efflux ratio at 2 h, 1 µM was determined as 31.6.

Turning to `C=CC(=O)N1[C@H](C)CN(c2ccc3ncnc(Nc4ccc(Oc5ccc6c(c5)ncn6C)c(C)c4)c3n2)C[C@@H]1C` [Example 106, 1-((2S,6R)-2,6-dimethyl-4-(4-((3-methyl-4-((1-methyl-1H-benzo[d]imidazol-5-yl)oxy)phenyl)amino)pyrido[3,2-d]pyrimidin-6-yl)piperazin-1-yl)prop-2-en-1-one], the IC50 at ErbB2 WT is 18.5 nM; against EGFR, 7790 nM; at EGFR wild type (EGFR WT) it was at least 5000 nM; in data set [1] it was 6 nM. Also, the efflux ratio at 2 h, 1 µM at BCRP came to 10.1.

Take `C=CC(=O)N1CCCN(c2ccc3ncnc(Nc4ccc(Oc5ccc6c(c5)ncn6C)c(C)c4)c3n2)CC1` [Example 108, 1-(4-(4-((3-methyl-4-((1-methyl-1H-benzo[d]imidazol-5-yl)oxy)phenyl)amino)pyrido[3,2-d]pyrimidin-6-yl)-1,4-diazepan-1-yl)prop-2-en-1-one]: the IC50 against ErbB2 WT was 29.4 nM; against EGFR it was at least 10000 nM; at EGFR wild type (EGFR WT) it was at least 5000 nM; in data set [1], 7.4 nM. For the same compound, at BCRP, the efflux ratio at 2 h, 1 µM amounted to 30.1.

Consider `C=CC(=O)N1CCN(c2ccc3ncnc(Nc4ccc(Oc5cnc6c(c5)ncn6C)c(C)c4)c3n2)CC1` [Example 110, 1-(4-(4-((3-methyl-4-((3-methyl-3H-imidazo[4,5-b]pyridin-6-yl)oxy)phenyl)amino)pyrido[3,2-d]pyrimidin-6-yl)piperazin-1-yl)prop-2-en-1-one], for which the IC50 against ErbB2 WT was determined as 58 nM; against EGFR, 6160 nM; on EGFR wild type (EGFR WT), 2530 nM; in data set [1], 5 nM. In addition, at BCRP, the efflux ratio at 2 h, 1 µM was found to be 84.4.

Turning to `C=CC(=O)N1CCCN(c2ccc3ncnc(Nc4ccc(Oc5cnc6c(c5)ncn6C)c(Cl)c4)c3n2)CC1` [Example 113, 1-(4-(4-((3-chloro-4-((3-methyl-3H-imidazo[4,5-b]pyridin-6-yl)oxy)phenyl)amino)pyrido[3,2-d]pyrimidin-6-yl)-1,4-diazepan-1-yl)prop-2-en-1-one], the IC50 at ErbB2 WT is 184 nM; at EGFR, at least 10000 nM; on EGFR wild type (EGFR WT), at least 5000 nM; in data set [1], 30.2 nM. The efflux ratio at 2 h, 1 µM at BCRP is 37.5.

Turning to `C=CC(=O)N1CCCN(c2ccc3ncnc(Nc4ccc(Oc5cnc6c(c5)ncn6C)c(C)c4)c3n2)CC1` [Example 114, 1-(4-(4-((3-methyl-4-((3-methyl-3H-imidazo[4,5-b]pyridin-6-yl)oxy)phenyl)amino)pyrido[3,2-d]pyrimidin-6-yl)-1,4-diazepan-1-yl)prop-2-en-1-one], the IC50 is 255 nM at ErbB2 WT, at least 10000 nM against EGFR, at least 5000 nM on EGFR wild type (EGFR WT) and 29.9 nM in data set [1]. Also, on BCRP, the efflux ratio at 2 h, 1 µM came to 23.5.

On to `C=CC(=O)N1C[C@H]2CN(c3ccc4ncnc(Nc5ccc(Oc6ccc7c(c6)ncn7C)c(C)c5)c4n3)C[C@H]21` [Example 116, 1-((1R,5S)-3-(4-((3-methyl-4-((1-methyl-1H-benzo[d]imidazol-5-yl)oxy)phenyl)amino)pyrido[3,2-d]pyrimidin-6-yl)-3,6-diazabicyclo[3.2.0]heptan-6-yl)prop-2-en-1-one], for which the half-maximal inhibitory concentration (IC50) is 52.3 nM against ErbB2 WT, 2580 nM against EGFR, 1580 nM against EGFR wild type (EGFR WT) and 10.2 nM in data set [1]. Moreover, the efflux ratio at 2 h, 1 µM on BCRP was determined as 22.4.

For the compound `C=CC(=O)N1CCC(c2ccc3ncnc(Nc4ccc(Oc5ccc6c(c5)ncn6C)c(C)c4)c3n2)CC1C` (centres unmarked) [Example 123, 1-(2-methyl-4-(4-((3-methyl-4-((1-methyl-1H-benzo[d]imidazol-5-yl)oxy)phenyl)amino)pyrido[3,2-d]pyrimidin-6-yl)piperidin-1-yl)prop-2-en-1-one], the concentration for half-maximal inhibition (IC50) was 60.4 nM against ErbB2 WT, at least 10000 nM against EGFR, at least 5000 nM at EGFR wild type (EGFR WT) and 7.6 nM in data set [1]. On BCRP, the efflux ratio at 2 h, 1 µM came out at 7.3.

As for `C=CC(=O)N1CCC(c2ccc3ncnc(Nc4ccc(Oc5ccc6c(c5)ncn6C)c(C)c4F)c3n2)CC1` [Example 146, 1-(4-(4-((2-fluoro-3-methyl-4-((1-methyl-1H-benzo[d]imidazol-5-yl)oxy)phenyl)amino)pyrido[3,2-d]pyrimidin-6-yl)piperidin-1-yl)prop-2-en-1-one], the IC50 at ErbB2 WT was 15.8 nM; on EGFR it was 2580 nM; at EGFR wild type (EGFR WT), at least 5000 nM; in data set [1], 36.7 nM. Besides, at BCRP, the efflux ratio at 2 h, 1 µM is 4.3.

For `C=CC(=O)N1CCN(c2nc3c(Nc4ccc(Oc5ccn6ncnc6c5)c(C)c4F)ncnc3cc2OC)CC1` [Example 152, 1-(4-(4-((4-([1,2,4]triazolo[1,5-a]pyridin-7-yloxy)-2-fluoro-3-methylphenyl)amino)-7-methoxypyrido[3,2-d]pyrimidin-6-yl)piperazin-1-yl)prop-2-en-1-one], the IC50 against ErbB2 WT came to 37.3 nM; against EGFR, 1040 nM; against EGFR wild type (EGFR WT) it was 613 nM; in data set [1], 20.9 nM. Moreover, on BCRP, the efflux ratio at 2 h, 1 µM was determined as 17.5.

In the case of `C=CC(=O)N1CCC(Oc2nc3c(Nc4ccc(Oc5ccc6cn(C)nc6c5)c(C)c4)ncnc3cc2OC)CC1` [Example 157, 1-(4-((7-methoxy-4-((3-methyl-4-((2-methyl-2H-indazol-6-yl)oxy)phenyl)amino)pyrido[3,2-d]pyrimidin-6-yl)oxy)piperidin-1-yl)prop-2-en-1-one], the IC50 against ErbB2 WT was 209 nM; on EGFR it was 2270 nM; on EGFR wild type (EGFR WT), 1740 nM; in data set [1], 21.3 nM. The efflux ratio at 2 h, 1 µM at BCRP stood at 6.8.

For `C=CC(=O)N1CCC(Sc2nc3c(Nc4ccc(Oc5ccc6c(c5)ncn6C)c(C)c4)ncnc3cc2OC)CC1` [Example 159, 1-(4-((7-methoxy-4-((3-methyl-4-((1-methyl-1H-benzo[d]imidazol-5-yl)oxy)phenyl)amino)pyrido[3,2-d]pyrimidin-6-yl)thio)piperidin-1-yl)prop-2-en-1-one], the concentration for half-maximal inhibition (IC50) at ErbB2 WT is 20.4 nM; on EGFR, 452 nM; at EGFR wild type (EGFR WT), 493 nM; in data set [1] it was 12 nM. The efflux ratio at 2 h, 1 µM on BCRP stood at 15.

As to `C=CC(=O)N1C[C@H](c2ccc3ncnc(Nc4cc(C)c(Oc5ccc6c(c5)ncn6C)cc4F)c3n2)C[C@H]1C` [Example 192, 1-((2R,4R)-4-(4-((2-fluoro-5-methyl-4-((1-methyl-1H-benzo[d]imidazol-5-yl)oxy)phenyl)amino)pyrido[3,2-d]pyrimidin-6-yl)-2-methylpyrrolidin-1-yl)prop-2-en-1-one], the IC50 against ErbB2 WT was 132 nM; on EGFR, at least 10000 nM; on EGFR wild type (EGFR WT), at least 5000 nM; in data set [1], 22.1 nM. Also, at BCRP, the efflux ratio at 2 h, 1 µM was 2.1.
